Experimental data taken from PubChem BioAssay (NCI).
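The concentration for 50% growth inhibition is given as GI50. TGI: concentration producing complete growth inhibition.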

Legend:
Assay in all cases: NCI anticancer screen, dose series, 384-well format
[1] = tested on: MALME-3M melanoma
[2] = tested on: A549 NSCLC
[3] = tested on: SK-MEL-28 melanoma
[4] = tested on: DU-145 prostate
[5] = tested on: SK-MEL-5 melanoma
[6] = tested on: SK-OV-3 ovarian
[7] = tested on: MDA-MB-231 breast
[8] = tested on: 786-0 renal
[9] = tested on: HOP-62 NSCLC
[10] = tested on: SN12C renal
[11] = tested on: CAKI-1 renal
[12] = tested on: PC-3 prostate
[13] = tested on: M14 melanoma
[14] = tested on: SF-295 CNS
[15] = tested on: UACC-257 melanoma
[16] = tested on: A498 renal
[17] = tested on: HCT-116 colon
[18] = tested on: UO-31 renal
[19] = tested on: SW-620 colon
[20] = tested on: OVCAR-4 ovarian
[21] = tested on: CCRF-CEM leukemia
[22] = tested on: NCI-H322M lung
[23] = tested on: LOX IMVI melanoma
[24] = tested on: U251 glioblastoma
[25] = tested on: NCI-H226 lung
[26] = tested on: NCI-H460 NSCLC
[27] = tested on: T-47D breast
[28] = tested on: KM12 colon
[29] = tested on: NCI-H23 lung
[30] = tested on: TK-10 renal
[31] = tested on: MOLT-4 leukemia
[32] = tested on: HT29 colon
[33] = tested on: RPMI-8226 leukemia
[34] = tested on: IGROV1 ovarian
[35] = tested on: HOP-92 NSCLC
[36] = tested on: NCI/ADR-RES ovarian
[37] = tested on: OVCAR-3 ovarian
[38] = tested on: NCI-H522 lung
[39] = tested on: MCF7 breast
[40] = tested on: SF-539 CNS
[41] = tested on: ACHN renal
[42] = tested on: OVCAR-8 ovarian
[43] = tested on: EKVX NSCLC
[44] = tested on: RXF 393 renal
[45] = tested on: HCT-15 colon
[46] = tested on: SNB-75 CNS
[47] = tested on: MDA-MB-468 breast
[48] = tested on: SNB-19 CNS
[49] = tested on: HCC-2998 colon
[50] = tested on: BT-549 breast
[51] = tested on: SR leukemia
[52] = tested on: K-562 leukemia
[53] = tested on: HL-60(TB) leukemia
[54] = tested on: COLO 205 colon
[55] = tested on: SF-268 CNS
[56] = tested on: UACC-62 melanoma
[57] = tested on: MDA-MB-435 melanoma
[58] = tested on: HS 578T breast

COc1cc2c(Nc3ccc(Cl)c(Cl)c3F)ncnc2cc1OCC1C[C@@H]2CN(C)C[C@@H]2C1 (stereo partly specified) showed a GI50 [1] of 1160 nM, a TGI [1] of 2380 nM and a GI50 [2] of 974 nM. The TGI [2] was 2160 nM, the GI50 [3] was 1450 nM and the TGI [3] was 2770 nM. The GI50 [4] was 557 nM, the TGI [4] was 2180 nM and the GI50 [5] was 1220 nM. For the same compound, the TGI [5] was 2460 nM, the GI50 [6] was 189 nM and the TGI [6] was 1430 nM. It also gave a GI50 [7] of 1180 nM, a TGI [7] of 2470 nM and a GI50 [8] of 710 nM. For the same compound, the TGI [8] was 2030 nM, the GI50 [9] was 1310 nM and the TGI [9] was 2590 nM. For the same compound, the GI50 [10] was 161 nM, the TGI [10] was 1400 nM and the GI50 [11] was 123 nM. For the same compound, the TGI [11] was 1600 nM, the GI50 [12] was 1120 nM and the TGI [12] was 2500 nM. For the same compound, the GI50 [13] was 1650 nM, the TGI [13] was 3.02 µM and the GI50 [14] was 1680 nM. It also gave a TGI [14] of 3.06 µM, a GI50 [15] of 208 nM and a TGI [15] of 409 nM. For the same compound, the GI50 [16] was 940 nM, the TGI [16] was 2150 nM and the GI50 [17] was 1390 nM. It also gave a TGI [17] of 2720 nM, a GI50 [18] of 252 nM and a TGI [18] of 1650 nM. For the same compound, the GI50 [19] was 1560 nM, the TGI [19] was 2900 nM and the GI50 [20] was 1360 nM. It also gave a TGI [20] of 3.15 µM, a GI50 [21] of 1520 nM and a TGI [21] of 2850 nM. It also gave a GI50 [22] of 31.7 nM, a TGI [22] of 366 nM and a GI50 [23] of 1150 nM. The TGI [23] was 2380 nM, the GI50 [24] was 1600 nM and the TGI [24] was 2950 nM. For the same compound, the GI50 [25] was 1260 nM, the TGI [25] was 2700 nM and the GI50 [26] was 1330 nM. It also gave a TGI [26] of 2620 nM, a GI50 [27] of 1020 nM and a TGI [27] of 2230 nM. For the same compound, the GI50 [28] was 1630 nM, the TGI [28] was 3.01 µM and the GI50 [29] was 1020 nM. For the same compound, the TGI [29] was 2230 nM, the GI50 [30] was 156 nM and the TGI [30] was 1230 nM. The GI50 [31] was 1100 nM, the TGI [31] was 2300 nM and the GI50 [32] was 598 nM. The TGI [32] was 1920 nM, the GI50 [33] was 1390 nM and the TGI [33] was 2680 nM. It also gave a GI50 [34] of 33.2 nM, a TGI [34] of 199 nM and a GI50 [35] of 1150 nM. The TGI [35] was 2370 nM, the GI50 [36] was 1400 nM and the TGI [36] was 2800 nM. The GI50 [37] was 93.8 nM, the TGI [37] was 1520 nM and the GI50 [38] was 80.1 nM. For the same compound, the TGI [38] was 1440 nM, the GI50 [39] was 1090 nM and the TGI [39] was 2300 nM. The GI50 [40] was 1140 nM, the TGI [40] was 2360 nM and the GI50 [41] was 69.1 nM. The TGI [41] was 1280 nM, the GI50 [42] was 1110 nM and the TGI [42] was 2320 nM. It also gave a GI50 [43] of 47.2 nM, a TGI [43] of 1130 nM and a GI50 [44] of 512 nM. For the same compound, the TGI [44] was 1860 nM, the GI50 [45] was 890 nM and the TGI [45] was 2130 nM. It also gave a GI50 [46] of 1310 nM, a TGI [46] of 2590 nM and a GI50 [47] of 30.7 nM. It also gave a TGI [47] of 162 nM, a GI50 [48] of 1410 nM and a TGI [48] of 2740 nM. The GI50 [49] was 1480 nM, the TGI [49] was 2810 nM and the GI50 [50] was 1300 nM. The TGI [50] was 2580 nM, the GI50 [51] was 415 nM and the TGI [51] was 801 nM. It also gave a GI50 [52] of 51 nM, a TGI [52] of 181 nM and a GI50 [53] of 1670 nM. For the same compound, the TGI [53] was 3.03 µM, the GI50 [54] was 1810 nM and the TGI [54] was 3.28 µM. For the same compound, the GI50 [55] was 1100 nM, the TGI [55] was 2300 nM and the GI50 [56] was 1120 nM. It also gave a TGI [56] of 2330 nM, a GI50 [57] of 1690 nM and a TGI [57] of 3.07 µM. For the same compound, the GI50 [58] was 1080 nM and the TGI [58] was 2280 nM.
